For assay [1], the system named is apical-out organoids formed from human bronchial epithelial cells. The assay can be described thus: Counting ciliated cells among dissociated apical-out airway organoids. It is filed as cell-based. Particulars: FIG. 3; for percentage of ciliated cells: first donor, highest concentrations of the titrated inhibitor in the organoid medium. As to the method: Cells were cultured and dissociated in accordance with Example 1, and seeded into Aggrewell™ 400 plates (STEMCELL Technologies) that were prepared in accordance with Example 2. Aggregates were generated by seeding roughly 1.2×10^5 cells per well (100 cells per microwell) of an Aggrewell™ 400 plate. The cells were seeded in 500 μL of apical-out organoid medium comprising a basal medium and an inhibitor of notch signaling. The AggreWell™ plate was centrifuged for 3 min at 100 g in order to sediment the cells to the bottom of the microwell. The plates were then incubated for 24 h to 144 h at 37° C. and 5% CO2.
(§1) After the aggregates were formed and sufficiently matured in accordance with Example 3, 500 μL of fresh apical-out airway organoid medium was added to each well. The aggregates were then resuspended using a P1000 pipette and each well distributed to two wells of a 24-well plate (prepared as described in Example 2). The aggregates were incubated under non-adherent conditions in apical-out airway organoid medium for up to 15 days. A partial medium change was performed every second day.
Apical-out airway organoids formed in accordance with Example 4 were harvested on day 15, transferred to a 15 ml tube, and centrifuged at 150 g for 5 min. The supernatant was removed, and the organoids were washed once with DMEM. The washed organoids were resuspended in ACCUTASE (STEMCELL Technologies) and were incubated for 15 minutes at room temperature, before being dissociated to single cells by pipetting vigorously with a P1000 pipette. The single-cell suspension was diluted 1:1 with trypan blue and was then loaded to a Hemocytometer where the cells were counted manually. At the time the dissociated cells are counted, the number of ciliated cells can also be determined by visual inspection.
In one experiment, apical-out organoids were formed from two donor samples in apical-out media formulated with different concentrations of an inhibitor of notch signaling and an inhibitor of TGFbeta signaling. […]

Assay [2] deals with apical-out organoids generated from passage 6 pulmonary lineage cells. As to the kind of experiment: Imaging of ciliation of apical-out organoids. Particulars: passage 6 cells; medium comprising an inhibitor of TGFbeta signaling and Y-27632; FIG. 7A. The assay is classed as cell-based, human. As to the method: as §1
Fully mature organoids, formed in accordance with Example 4, were imaged using a standard microscope camera. For example, the organoids may be imaged using a Leica DMi8 or an EVOS M500.
Representative images of apical-out organoids generated from passage 6 pulmonary lineage cells from a donor are shown in FIG. 7.

Structures are written as SMILES.

The record followed here is patent US20240376436A1, “COMPOSITIONS AND METHODS FOR BIASING THE POLARITY OF ORGANOIDS” (STEMCELL TECHNOLOGIES CANADA INC., priority 2021, published 2024).

`Cc1cccc(-c2[nH]ncc2-c2ccnc3ccccc23)n1` [A77-01]: in assay [1], the “percentage of ciliated cells” value was “decreased percentage of ciliated cells”. Moreover, the “emergence of ciliated cells” value in assay [1] (second donor, lower concentrations in the organoid medium) is recorded as “detrimental to the emergence of ciliated cells”.

Consider `C[C@H](NC(=O)Cc1cc(F)cc(F)c1)C(=O)N[C@H](C(=O)OC(C)(C)C)c1ccccc1` [DAPT], for which the “percentage of ciliated cells” value in assay [1] is “decreased percentage of ciliated cells”.

`C[C@@H](N)[C@H]1CC[C@H](C(=O)Nc2ccncc2)CC1` [Y-27632]: the “ciliation of organoids (representative images)” value in assay [2] is “patchy ciliation”.
